Reference: patent US10093898B2, “Purification of functional human astrocytes” (The Board of Trustees of the Leland Stanford Junior …, priority 2015, dated 2018)

Tested on: purified human astrocytes
Experiment: Calcium imaging of purified human astrocytes (Fluo-4 AM) after ATP or glutamate stimulation
Type: cell-based
Details: for calcium response (increased intracellular calcium concentrations): 30 nM-670 μM
Procedure: Therefore, we performed calcium imaging on purified human astrocytes after loading cells grown in vitro with the calcium sensitive dye Fluo-4 AM.
Calcium imaging. Purified human astrocytes were plated at 100,000 cells/imaging chamber (MatTek, P35GC-1.0-14-C) coated with poly-d-lysine. Cells were grown for at least 5 days before imaging. Cells were incubated for 15 minutes with 2 μM Fluo 4 AM (Invitrogen, F-14201) and then washed 3 times with PBS and replaced with 1.5 ml of growth medium per chamber. The cells were then let to recover from mechanical stimulation for 3 minutes and then imaged in a humidified, temperature-controlled chamber with a 40× oil objective. Images were taken at 0.7 s intervals and analyzed with ImageJ.

## Nc1ncnc2c1ncn2[C@@H]1O[C@H](COP(=O)(O)OP(=O)(O)OP(=O)(O)O)[C@@H](O)[C@H]1O [ATP]
Fetal human astrocytes
  calcium response (increased intracellular calcium concentrations): responded
Postnatal human astrocytes
  temporal pattern of calcium response: asynchronous oscillatory response
  calcium response (increased intracellular calcium concentrations): responded to both

## N[C@@H](CCC(=O)O)C(=O)O [glutamate]
Postnatal human astrocytes
  temporal pattern of calcium response: synchronous non-oscillatory response
  calcium response (increased intracellular calcium concentrations): responded to both
Postnatal human astrocytes, independent of concentration
  time for intracellular calcium to decrease to baseline levels: ≤ 10 s
